Source: PubChem BioAssay AID2060501 (Molecular Pharmacology Branch, DTP, NCI, 2025)
“And” between values parts separate entries of the source, which are not always exact repeats. Equal values may be shown once.

Tested on: 282377-053-R-J1-PDC complex spheroids, viability
Experiment: Anticancer human tumor 282377-053-R-J1-PDC patient-derived colon adenocarcinoma cell line growth inhibition [GQUAD]
Conditions: for viability, T/C: stronger effect = lower value
Text: DNA G-quadruplex Stabilizer Agents in Combinations in Complex Spheroids
A high-throughput screen of multi-cell type tumor spheroids was designed to identify active combinations of DNA G-quadruplex stabilizer agents and targeted small molecules. Complex spheroids include a stromal component modeled by human endothelial cells (HUVEC) and fibroblasts modeled by human mesenchymal stem cells (MSCs). The concentration ranges selected for each drug and investigational agent were based upon clinically achievable concentrations if the clinical Cmax of the agent was known.
Compounds. The drugs and investigational agents: pidnarulex (CX-5461; NSC782164), APTO-253 (NSC789042), BRACO-19 (NSC847499), peposertib (NSC802822), ceralasertib (NSC780249), elimusertib (NSC800525), camonsertib (NSC841442), AZD-1390 (NSC803789), olaparib (NSC753686), talazoparib (NSC767125), ART-558 (NSC835418), sotorasib (NSC818433), MRTX-1133 (NSC836407), SN-38 (NSC673596), topotecan (NSC609699), etoposide (NSC141540), doxorubicin (NSC123127), gemcitabine (NSC613327), 5-fluorouracil (NSC19893), paclitaxel (NSC125973), vemurafenib (NSC761431), panobinostat (NSC761190), R-306465 (JNJ-16241199; NSC773264), adavosertib (NSC754352), TP-3654 (NSC805149), carboplatin (NSC241240), KSQ-4279 (NSC840948), and staurosporine (NSC755774) were obtained from the National Cancer Institute (NCI) Developmental Therapeutics Program Chemical Repository (34). The FDA-approved anticancer drug set is available from the NCI Developmental Therapeutics Program. […] The stock solutions were prepared in dimethyl sulfoxide (DMSO, Sigma-Aldrich, St. Louis, MO, cat. D2650) at 800-fold the tested concentration and stored at -70 degrees C prior to their use. All drugs and investigational agents were tested over a range starting from a high concentration at or near the clinical Cmax and decreasing in half-log increments. If the clinical Cmax for an agent had not been determined, the highest concentration tested was 10 microM.
2.3 Cell Culture. All cells were maintained in an incubator at 37 degrees C and 5% CO2 with 95% humidity. The PDC lines were cultured according to standard operating procedures established by the NCI PDMR. All PDCs were thawed and cultured in Matrigel-coated flasks prepared with a working solution of 1X Ham's F-12 nutrient mix, without supplementation (Invitrogen, cat. 11765054), 100 U/mL penicillin-streptomycin (Invitrogen, cat. 15140122), and 2.5% Matrigel (Corning Inc., cat. 354248) for the first three passages. The 857933-349-R-J2-PDC line was cultured in 6C/Colon 1B media, which includes advanced DMEM/F-12 (Thermo Fisher Scientific, cat. 12634028), 10 mM HEPES (Thermo Fisher Scientific, cat. 15630080), 1X GlutaMAX supplement (Thermo Fisher Scientific, cat. 35050061), 0.1 mg/mL primocin (InvivoGen, cat. ant-pm-2), 10% defined fetal bovine serum, heat inactivated (HyClone Laboratories Inc., cat. SH30070.03HI), 50% L-WRN conditioned media (ATCC, cat. CRL-3276), 1.25 mM N-Acetyl-L-cysteine (Sigma-Aldrich, cat. A9165), 10 mM nicotinamide (Sigma-Aldrich, cat. N0636), 1X B-27 supplement (Thermo Fisher Scientific, cat. 17504044), 1X N-2 supplement (Thermo Fisher Scientific, cat. 17502048), 10 microM Y-27632 dihydrochloride (Tocris Bioscience, cat. 1254), and 50 ng/mL human EGF recombinant protein (Thermo Fisher Scientific, cat. PHG0311). The 485176-168-R4-J1-PDC line was cultured in Panc media, which includes all 6C/Colon 1B media components plus 100 ng/mL human FGF-10 (Thermo Fisher Scientific, cat. 100-26), 500 nM SB-431542 (Selleckchem, cat. S1067), and gastrin (Tocris, cat. 3006).
[…]
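Further: spheroids exposed to compounds for 7 days before readout.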
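Wherever viability, T/C is given: percent of vehicle DMSO control viability with 100% = untreated-like growth.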

## CC(=O)O[C@H]1C(=O)[C@@]2(C)[C@H]([C@H](OC(=O)c3ccccc3)[C@]3(O)C[C@H](OC(=O)[C@H](O)[C@@H](NC(=O)c4ccccc4)c4ccccc4)C(C)=C1C3(C)C)[C@]1(OC(C)=O)CO[C@@H]1C[C@@H]2O
Compound 0.0316 µM
  viability, T/C: 114% and 62.1% and 42.4%
Compound 0.1 µM
  viability, T/C: 98.5% and 13.8% and 13.7%
Compound 0.316 µM
  viability, T/C: 89% and 15.7% and 17%
Compound 1 µM
  viability, T/C: 4.35% and 20.7% and 17.9%
Compound 3.16 µM
  viability, T/C: 0.15% and 21.9% and 16.7%

## C=CCn1c(=O)c2cnc(Nc3ccc(N4CCN(C)CC4)cc3)nc2n1-c1cccc(C(C)(C)O)n1 + Cc1[nH]c2ccc(F)cc2c1-c1nc2c3cccnc3c3ncccc3c2[nH]1
Curve of first compound, second compound 0.0316 µM
  IC50: 4.25 µM
Curve of first compound, second compound 0.1 µM
  IC50: 3.54 µM
Curve of first compound, second compound 0.316 µM
  IC50: 3.23 µM
Curve of first compound, second compound 1 µM
  IC50: 1.95 µM
Curve of first compound, second compound 3.16 µM
  IC50: 0.0447 µM
Curve of first compound, second compound 10 µM
  IC50: < 0.0316 µM
Second compound 0.0316 µM, first compound 0.0316 µM
  viability, T/C: 101%
Second compound 0.0316 µM, first compound 0.1 µM
  viability, T/C: 61.7%
Second compound 0.0316 µM, first compound 0.316 µM
  viability, T/C: 95%
Second compound 0.0316 µM, first compound 1 µM
  viability, T/C: 73.2%
Second compound 0.0316 µM, first compound 3.16 µM
  viability, T/C: 63.7%
Second compound 0.0316 µM, first compound 10 µM
  viability, T/C: 15.3%
Second compound 0.1 µM, first compound 0.0316 µM
  viability, T/C: 80.2%
Second compound 0.1 µM, first compound 0.1 µM
  viability, T/C: 65.2%
Second compound 0.1 µM, first compound 0.316 µM
  viability, T/C: 79.8%
Second compound 0.1 µM, first compound 1 µM
  viability, T/C: 62.2%
Second compound 0.1 µM, first compound 3.16 µM
  viability, T/C: 56.5%
Second compound 0.1 µM, first compound 10 µM
  viability, T/C: 12.7%
Second compound 0.316 µM, first compound 0.0316 µM
  viability, T/C: 91.6%
Second compound 0.316 µM, first compound 0.1 µM
  viability, T/C: 70.5%
Second compound 0.316 µM, first compound 0.316 µM
  viability, T/C: 77.7%
Second compound 0.316 µM, first compound 1 µM
  viability, T/C: 70%
Second compound 0.316 µM, first compound 3.16 µM
  viability, T/C: 51.4%
Second compound 0.316 µM, first compound 10 µM
  viability, T/C: 12.8%
Second compound 1 µM, first compound 0.0316 µM
  viability, T/C: 84.5%
Second compound 1 µM, first compound 0.1 µM
  viability, T/C: 71%
Second compound 1 µM, first compound 0.316 µM
  viability, T/C: 72.6%
Second compound 1 µM, first compound 1 µM
  viability, T/C: 59.5%
Second compound 1 µM, first compound 3.16 µM
  viability, T/C: 44.3%
Second compound 1 µM, first compound 10 µM
  viability, T/C: 11%
Second compound 3.16 µM, first compound 0.0316 µM
  viability, T/C: 50.3%
Second compound 3.16 µM, first compound 0.1 µM
  viability, T/C: 49.1%
Second compound 3.16 µM, first compound 0.316 µM
  viability, T/C: 24%
Second compound 3.16 µM, first compound 1 µM
  viability, T/C: 16.9%
Second compound 3.16 µM, first compound 3.16 µM
  viability, T/C: 12.7%
Second compound 3.16 µM, first compound 10 µM
  viability, T/C: 2.18%
Second compound 10 µM, first compound 0.0316 µM
  viability, T/C: 20.7%
Second compound 10 µM, first compound 0.1 µM
  viability, T/C: 41.4%
Second compound 10 µM, first compound 0.316 µM
  viability, T/C: 16.9%
Second compound 10 µM, first compound 1 µM
  viability, T/C: 11.4%
Second compound 10 µM, first compound 3.16 µM
  viability, T/C: 7.59%
Second compound 10 µM, first compound 10 µM
  viability, T/C: 1.56%

## CCCS(=O)(=O)Nc1ccc(F)c(C(=O)c2c[nH]c3ncc(-c4ccc(Cl)cc4)cc23)c1F
Compound 0.0316 µM
  viability, T/C: 117% and 88.2% and 74.2%
Compound 0.1 µM
  viability, T/C: 76.3% and 55.9% and 63.7%
Compound 0.316 µM
  viability, T/C: 90.1% and 68.8% and 55.6%
Compound 1 µM
  viability, T/C: 75.6% and 74.8% and 57.6%
Compound 3.16 µM
  viability, T/C: 29.3% and 72.3% and 66.7%
Compound 10 µM
  viability, T/C: 17.7% and 16.4% and 14.4%
Curve of compound
  IC50: 1.89 µM and 4.98 µM and 4.34 µM

## COc1cccc2c1C(=O)c1c(O)c3c(c(O)c1C2=O)CC(O)(C(=O)CO)CC3OC1CC(N)C(O)C(C)O1 (configuration not stated)
Compound 0.0316 µM
  viability, T/C: 109% and 108% and 110%
Compound 0.1 µM
  viability, T/C: 110% and 102% and 101%
Compound 0.316 µM
  viability, T/C: 92.8% and 109% and 77.7%
Compound 1 µM
  viability, T/C: 54.2% and 77.3% and 56%
Compound 3.16 µM
  viability, T/C: 15.7% and 29.5% and 13.9%
Compound 10 µM
  viability, T/C: 1.35% and 2.21% and 0.95%
Curve of compound
  IC50: 1.13 µM and 1.94 µM and 1.01 µM

## Nc1ccn(C2OC(CO)C(O)C2(F)F)c(=O)n1 (configuration not stated)
Compound 0.0316 µM
  viability, T/C: 97% and 108% and 101%
Compound 0.1 µM
  viability, T/C: 76% and 78.1% and 78.7%
Compound 0.316 µM
  viability, T/C: 37.7% and 50.4% and 35.4%
Compound 1 µM
  viability, T/C: 34.4% (2×) and 26.7%
Compound 3.16 µM
  viability, T/C: 25.4% and 37.8% and 20.9%
Compound 10 µM
  viability, T/C: 18.3% and 20.1% and 17.3%
Curve of compound
  IC50: 0.235 µM and 0.382 µM and 0.219 µM

## CCc1c2c(nc3ccc(O)cc13)-c1cc3c(c(=O)n1C2)COC(=O)[C@]3(O)CC
Compound 0.000999 µM
  viability, T/C: 87.9% and 100% and 111%
Compound 0.00316 µM
  viability, T/C: 81.8% and 80.9% and 91%
Compound 0.00999 µM
  viability, T/C: 67.7% and 93.2% and 67%
Compound 0.0316 µM
  viability, T/C: 50.7% and 73% and 63.6%
Compound 0.0999 µM
  viability, T/C: 40.8% and 61.3% and 40.1%
Compound 0.316 µM
  viability, T/C: 29.2% and 39% and 30.2%
Curve of compound
  IC50: 0.0384 µM and 0.178 µM and 0.0546 µM

## CC[C@@]1(O)C(=O)OCc2c1cc1n(c2=O)Cc2cc3c(CN(C)C)c(O)ccc3nc2-1
Compound 0.000999 µM
  viability, T/C: 98.2% and 99.2% and 107%
Compound 0.00316 µM
  viability, T/C: 92.4% and 87.1% and 103%
Compound 0.00999 µM
  viability, T/C: 106% and 101% and 87.3%
Compound 0.0316 µM
  viability, T/C: 89.3% and 95.4% and 117%
Compound 0.0999 µM
  viability, T/C: 84% and 109% and 93.1%
Compound 0.316 µM
  viability, T/C: 57.4% and 106% and 60.5%
Curve of compound
  IC50: > 0.316 µM

## Cc1cnc(CNC(=O)c2c(=O)c3ccc(N4CCCN(C)CC4)nc3n3c2sc2ccccc23)cn1
Compound 1 µM
  viability, T/C: 64.5% [middle of 12 runs]
Compound 3.16 µM
  viability, T/C: 57.2% [middle of 12 runs]
Compound 10 µM
  viability, T/C: 55.2% [middle of 12 runs]

## C=CC(=O)N1CCN(c2nc(=O)n(-c3c(C)ccnc3C(C)C)c3nc(-c4c(O)cccc4F)c(F)cc23)C(C)C1 (configuration not stated)
Compound 0.0316 µM
  viability, T/C: 114% and 108% and 103%
Compound 0.1 µM
  viability, T/C: 92.4% and 90.8% and 92.9%
Compound 0.316 µM
  viability, T/C: 104% and 91.5% and 93.6%
Compound 1 µM
  viability, T/C: 91.5% and 93.8% and 96.1%
Compound 3.16 µM
  viability, T/C: 105% and 95.6% and 103%
Compound 10 µM
  viability, T/C: 97.3% and 80.3% and 106%
Curve of compound
  IC50: > 10 µM
